# Results from BindingDB's records for doi:10.1021/jm00089a010 (Abbott Laboratories, 1992).
# pIC50: −log10 of the molar value. Where a SMILES comes first, the peptide text is derived from it. [ ]: non-standard residue; d: D form. The star is where a group is joined. Propanoyl(3-(4-F-phenyl)) = O=C(CCc1ccc(F)cc1)*; Acryloyl(3-(pyridin-3-yl)) = O=C(C=Cc1cccnc1)*; Propanoyl(3-(4-Cl-Ph)) = O=C(CCc1ccc(Cl)cc1)*; 2Naphthoyl(6-OH) = O=C(c1ccc2cc(O)ccc2c1)*; Hydrocinnamoyl(4-Me) = Cc1ccc(CCC(=O)*)cc1; Quinoline3carbonyl = O=C(c1cnc2ccccc2c1)*; X36 = O=C(C=Cc1ccc(OS(=O)(=O)O)cc1)*; X20 = CC(=O)Oc1ccc2cc(C(=O)*)ccc2c1; X22 = O=C(CCc1cccc(OS(=O)(=O)O)c1)*; Hydrocinnamoyl = O=C(CCc1ccccc1)*; X17 = COc1ccc(/C=C\C(=O)*)c(OC)c1; NMeF = CN[C@@H](Cc1ccccc1)C(=O)O; X10 = O=C(/C=C\c1ccc(Cl)cc1Cl)*; X14 = O=C(c1cc2cc(O)ccc2[nH]1)*; X2 = O=C(c1cc2cc(Cl)ccc2[nH]1)*; X31 = COc1ccc(/C=C\C(=O)*)cc1OC; X37 = O=C(C=Cc1c[nH]c2ccccc12)*; X7 = CN(C)c1ccc(/C=C\C(=O)*)cc1; X8 = COc1ccc2[nH]c(C(=O)*)cc2c1; X12 = O=C(c1cnc2cccc(O)c2c1)*; X11 = O=C(/C=C\c1ccc(O)cc1)*; X18 = O=C(c1cc2ccccc2[nH]1)*; X16 = O=C(/C=C\c1ccccc1O)*; X19 = O=C(/C=C\c1ccccc1)*; X27 = O=C(Cc1ccc(O)cc1)*; X5 = O=C(CCc1cccc(O)c1)*; Boc = CC(C)(C)OC(=O)*
# Target: Gastrin/cholecystokinin type B receptor (Cavia porcellus)
# Test: Inhibition of specific binding of [125I]BH-CCK-8 in guinea pig cortex
row,Compound,pIC50
1,CN(C(=O)[C@H](CC(=O)O)NC(=O)[C@H](CCCCNC(=O)c1ccc2cc(O)ccc2c1)NC(=O)[C@H](Cc1c[nH]c2ccccc12)NC(=O)OC(C)(C)C)[C@@H](Cc1ccccc1)C(N)=O (Boc-WK(2Naphthoyl(6-OH))D[NMeF]-NH2),6.14
2,CN(C(=O)[C@H](CC(=O)O)NC(=O)[C@H](CCCCNC(=O)C=Cc1cccnc1)NC(=O)[C@H](Cc1c[nH]c2ccccc12)NC(=O)OC(C)(C)C)[C@@H](Cc1ccccc1)C(N)=O (Boc-WK(Acryloyl(3-(pyridin-3-yl)))D[NMeF]-NH2),6.92
3,CC(C)(C)OC(=O)N[C@@H](Cc1c[nH]c2ccccc12)C(=O)N[C@@H](CCCCNC(=O)c1cnc2ccccc2c1)C(=O)N[C@@H](CC(=O)O)C(=O)N[C@@H](Cc1ccccc1)C(N)=O (Boc-WK(Quinoline3carbonyl)DF-NH2),6.70
4,CC(C)(C)OC(=O)N[C@@H](Cc1c[nH]c2ccccc12)C(=O)N[C@@H](CCCCNC(=O)c1cc2cc(Cl)ccc2[nH]1)C(=O)N[C@@H](CC(=O)O)C(=O)N[C@@H](Cc1ccccc1)C(N)=O (Boc-WK(X2)DF-NH2),5.28
5,COc1ccc2[nH]c(C(=O)NCCCC[C@H](NC(=O)[C@H](Cc3c[nH]c4ccccc34)NC(=O)OC(C)(C)C)C(=O)N[C@@H](CC(=O)O)C(=O)N[C@@H](Cc3ccccc3)C(N)=O)cc2c1 (Boc-WK(X8)DF-NH2),5.52
6,CC(C)(C)OC(=O)N[C@@H](Cc1c[nH]c2ccccc12)C(=O)N[C@@H](CCCCNC(=O)c1cnc2cccc(O)c2c1)C(=O)N[C@@H](CC(=O)O)C(=O)N[C@@H](Cc1ccccc1)C(N)=O (Boc-WK(X12)DF-NH2),6.17
7,CC(C)(C)OC(=O)N[C@@H](Cc1c[nH]c2ccccc12)C(=O)N[C@@H](CCCCNC(=O)c1cc2cc(O)ccc2[nH]1)C(=O)N[C@@H](CC(=O)O)C(=O)N[C@@H](Cc1ccccc1)C(N)=O (Boc-WK(X14)DF-NH2),6.08
8,CC(C)(C)OC(=O)N[C@@H](Cc1c[nH]c2ccccc12)C(=O)N[C@@H](CCCCNC(=O)c1cc2ccccc2[nH]1)C(=O)N[C@@H](CC(=O)O)C(=O)N[C@@H](Cc1ccccc1)C(N)=O (Boc-WK(X18)DF-NH2),5.68
9,CC(=O)Oc1ccc2cc(C(=O)NCCCC[C@H](NC(=O)[C@H](Cc3c[nH]c4ccccc34)NC(=O)OC(C)(C)C)C(=O)N[C@@H](CC(=O)O)C(=O)N[C@@H](Cc3ccccc3)C(N)=O)ccc2c1 (Boc-WK(X20)DF-NH2),5.85
10,CN(C(=O)[C@H](CC(=O)O)NC(=O)[C@H](CCCCNC(=O)C=Cc1ccc(OS(=O)(=O)O)cc1)NC(=O)[C@H](Cc1c[nH]c2ccccc12)NC(=O)OC(C)(C)C)[C@@H](Cc1ccccc1)C(N)=O (Boc-WK(X36)D[NMeF]-NH2),6.00
11,CC(C)(C)OC(=O)N[C@@H](Cc1c[nH]c2ccccc12)C(=O)N[C@@H](CCCCNC(=O)C=Cc1c[nH]c2ccccc12)C(=O)N[C@@H](CC(=O)O)C(=O)N[C@@H](Cc1ccccc1)C(N)=O (Boc-WK(X37)DF-NH2),5.33
12,Cc1ccc(CCC(=O)NCCCC[C@H](NC(=O)[C@H](Cc2c[nH]c3ccccc23)NC(=O)OC(C)(C)C)C(=O)N[C@@H](CC(=O)O)C(=O)N[C@@H](Cc2ccccc2)C(N)=O)cc1 [3-[2-[2-tert-Butoxycarbonylamino-3-(1H-indol-3-yl)-propionylamino]-6-(3-p-tolyl-propionylamino)-hexanoylamino]-N-(1-carbamoyl-2-phenyl-ethyl)-succinamic acid] (Boc-WK(Hydrocinnamoyl(4-Me))DF-NH2),5.00
13,CC(C)(C)OC(=O)N[C@@H](Cc1c[nH]c2ccccc12)C(=O)N[C@@H](CCCCNC(=O)/C=C\c1ccccc1)C(=O)N[C@@H](CC(=O)O)C(=O)N[C@@H](Cc1ccccc1)C(N)=O [3-[2-[2-tert-Butoxycarbonylamino-3-(1H-indol-3-yl)-propionylamino]-6-(3-phenyl-acryloylamino)-hexanoylamino]-N-(1-carbamoyl-2-phenyl-ethyl)-succinamic acid.AcOH] (Boc-WK(X19)DF-NH2),5.74
14,CC(C)(C)OC(=O)N[C@@H](Cc1c[nH]c2ccccc12)C(=O)N[C@@H](CCCCNC(=O)CCc1ccccc1)C(=O)N[C@@H](CC(=O)O)C(=O)N[C@@H](Cc1ccccc1)C(N)=O [3-[2-[2-tert-Butoxycarbonylamino-3-(1H-indol-3-yl)-propionylamino]-6-(3-phenyl-propionylamino)-hexanoylamino]-N-(1-carbamoyl-2-phenyl-ethyl)-succinamic acid.2AcOH] (Boc-WK(Hydrocinnamoyl)DF-NH2),5.23
15,CC(C)(C)OC(=O)N[C@@H](Cc1c[nH]c2ccccc12)C(=O)N[C@@H](CCCCNC(=O)Cc1ccc(O)cc1)C(=O)N[C@@H](CC(=O)O)C(=O)N[C@@H](Cc1ccccc1)C(N)=O [3-{2-[2-tert-Butoxycarbonylamino-3-(1H-indol-3-yl)-propionylamino]-6-[2-(4-hydroxy-phenyl)-acetylamino]-hexanoylamino}-N-(1-carbamoyl-2-phenyl-ethyl)-succinamic acid; hydrate] (Boc-WK(X27)DF-NH2),6.32
16,"CC(C)(C)OC(=O)N[C@@H](Cc1c[nH]c2ccccc12)C(=O)N[C@@H](CCCCNC(=O)/C=C\c1ccc(Cl)cc1Cl)C(=O)N[C@@H](CC(=O)O)C(=O)N[C@@H](Cc1ccccc1)C(N)=O [3-{2-[2-tert-Butoxycarbonylamino-3-(1H-indol-3-yl)-propionylamino]-6-[3-(2,4-dichloro-phenyl)-acryloylamino]-hexanoylamino}-N-(1-carbamoyl-2-phenyl-ethyl)-succinamic acid; hydrate] (Boc-WK(X10)DF-NH2)",5.30
17,"COc1ccc(/C=C\C(=O)NCCCC[C@H](NC(=O)[C@H](Cc2c[nH]c3ccccc23)NC(=O)OC(C)(C)C)C(=O)N[C@@H](CC(=O)O)C(=O)N[C@@H](Cc2ccccc2)C(N)=O)c(OC)c1 [3-{2-[2-tert-Butoxycarbonylamino-3-(1H-indol-3-yl)-propionylamino]-6-[3-(2,4-dimethoxy-phenyl)-acryloylamino]-hexanoylamino}-N-(1-carbamoyl-2-phenyl-ethyl)-succinamic acid; hydrate] (Boc-WK(X17)DF-NH2)",5.52
18,CC(C)(C)OC(=O)N[C@@H](Cc1c[nH]c2ccccc12)C(=O)N[C@@H](CCCCNC(=O)/C=C\c1ccccc1O)C(=O)N[C@@H](CC(=O)O)C(=O)N[C@@H](Cc1ccccc1)C(N)=O [3-{2-[2-tert-Butoxycarbonylamino-3-(1H-indol-3-yl)-propionylamino]-6-[3-(2-hydroxy-phenyl)-acryloylamino]-hexanoylamino}-N-(1-carbamoyl-2-phenyl-ethyl)-succinamic acid; hydrate] (Boc-WK(X16)DF-NH2),6.68
19,"COc1ccc(/C=C\C(=O)NCCCC[C@H](NC(=O)[C@H](Cc2c[nH]c3ccccc23)NC(=O)OC(C)(C)C)C(=O)N[C@@H](CC(=O)O)C(=O)N[C@@H](Cc2ccccc2)C(N)=O)cc1OC [3-{2-[2-tert-Butoxycarbonylamino-3-(1H-indol-3-yl)-propionylamino]-6-[3-(3,4-dimethoxy-phenyl)-acryloylamino]-hexanoylamino}-N-(1-carbamoyl-2-phenyl-ethyl)-succinamic acid; hydrate] (Boc-WK(X31)DF-NH2)",5.40
20,CC(C)(C)OC(=O)N[C@@H](Cc1c[nH]c2ccccc12)C(=O)N[C@@H](CCCCNC(=O)CCc1cccc(O)c1)C(=O)N[C@@H](CC(=O)O)C(=O)N[C@@H](Cc1ccccc1)C(N)=O [3-{2-[2-tert-Butoxycarbonylamino-3-(1H-indol-3-yl)-propionylamino]-6-[3-(3-hydroxy-phenyl)-propionylamino]-hexanoylamino}-N-(1-carbamoyl-2-phenyl-ethyl)-succinamic acid; hydarte] (Boc-WK(X5)DF-NH2),5.52
21,CC(C)(C)OC(=O)N[C@@H](Cc1c[nH]c2ccccc12)C(=O)N[C@@H](CCCCNC(=O)CCc1cccc(OS(=O)(=O)O)c1)C(=O)N[C@@H](CC(=O)O)C(=O)N[C@@H](Cc1ccccc1)C(N)=O [3-{2-[2-tert-Butoxycarbonylamino-3-(1H-indol-3-yl)-propionylamino]-6-[3-(3-sulfooxy-phenyl)-propionylamino]-hexanoylamino}-N-(1-carbamoyl-2-phenyl-ethyl)-succinamic acid; NH40H.hydrate] (Boc-WK(X22)DF-NH2),5.00
22,CC(C)(C)OC(=O)N[C@@H](Cc1c[nH]c2ccccc12)C(=O)N[C@@H](CCCCNC(=O)CCc1ccc(Cl)cc1)C(=O)N[C@@H](CC(=O)O)C(=O)N[C@@H](Cc1ccccc1)C(N)=O [3-{2-[2-tert-Butoxycarbonylamino-3-(1H-indol-3-yl)-propionylamino]-6-[3-(4-chloro-phenyl)-propionylamino]-hexanoylamino}-N-(1-carbamoyl-2-phenyl-ethyl)-succinamic acid; hydrate] (Boc-WK(Propanoyl(3-(4-Cl-Ph)))DF-NH2),5.15
23,CN(C)c1ccc(/C=C\C(=O)NCCCC[C@H](NC(=O)[C@H](Cc2c[nH]c3ccccc23)NC(=O)OC(C)(C)C)C(=O)N[C@@H](CC(=O)O)C(=O)N[C@@H](Cc2ccccc2)C(N)=O)cc1 [3-{2-[2-tert-Butoxycarbonylamino-3-(1H-indol-3-yl)-propionylamino]-6-[3-(4-dimethylamino-phenyl)-acryloylamino]-hexanoylamino}-N-(1-carbamoyl-2-phenyl-ethyl)-succinamic acid; hydrate] (Boc-WK(X7)DF-NH2),5.68
24,CC(C)(C)OC(=O)N[C@@H](Cc1c[nH]c2ccccc12)C(=O)N[C@@H](CCCCNC(=O)CCc1ccc(F)cc1)C(=O)N[C@@H](CC(=O)O)C(=O)N[C@@H](Cc1ccccc1)C(N)=O [3-{2-[2-tert-Butoxycarbonylamino-3-(1H-indol-3-yl)-propionylamino]-6-[3-(4-fluoro-phenyl)-propionylamino]-hexanoylamino}-N-(1-carbamoyl-2-phenyl-ethyl)-succinamic acid; hydrate] (Boc-WK(Propanoyl(3-(4-F-phenyl)))DF-NH2),5.00
25,CC(C)(C)OC(=O)N[C@@H](Cc1c[nH]c2ccccc12)C(=O)N[C@@H](CCCCNC(=O)/C=C\c1ccc(O)cc1)C(=O)N[C@@H](CC(=O)O)C(=O)N[C@@H](Cc1ccccc1)C(N)=O [3-{2-[2-tert-Butoxycarbonylamino-3-(1H-indol-3-yl)-propionylamino]-6-[3-(4-hydroxy-phenyl)-acryloylamino]-hexanoylamino}-N-(1-carbamoyl-2-phenyl-ethyl)-succinamic acid] (Boc-WK(X11)DF-NH2),6.14
